# In patent publication US20110253135A1, “METAL COORDINATION COMPLEXES OF VOLATILE DRUGS” (ALEXZA PHARMACEUTICALS, INC., priority 2008, published 2011):
# Read-outs that look alike come from different tables or passages of the source.
# Key:
# [1] = Drug aerosol from percussively ignited heat package: purity and recovered yield by HPLC; format: physicochemical
# [2] = 25° C.; cited from earlier work
structure (smiles),measurement,setting,value
Cc1nnc2n1-c1ccc(Cl)cc1C(c1ccccc1)=NC2 [alprazolam],purity of the resultant aerosol,[1],96.8%
same,recovered yield of aerosol,[1],100%
"CN1CCCC1c1cccnc1 (stereo not shown) [Nicotine, nicotine]",vapor pressure,[2],0.0425 mmHg
CC(C)C(=O)OCC(=O)[C@@]12O[C@H](C3CCCCC3)O[C@@H]1C[C@H]1[C@@H]3CCC4=CC(=O)C=C[C@]4(C)[C@H]3[C@@H](O)C[C@@]12C [ciclesonide],purity of the resultant aerosol,"[1]; percussively ignited heat package, greater than 800° C., air flow 20 L/min, film 1.58 μm alprazolam, 6.33 μm pramipexole, 2.53 μm ciclesonide",85.6%
